# Test results: PubChem BioAssay AID179 (DTP/NCI, 2004)
# pEC50, pIC50: −log10 of the molar value. “And” between values parts separate entries of the source, which are not always exact repeats. Equal entries are not always repeated. The source made the active and inactive calls.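 How the source made its calls: active means compounds giving half or more protection of infected cells from virus-caused growth loss, again on retest; inactive means the rest.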 Where a SMILES comes first, the peptide text is derived from it. Bridges are numbered along the chain shown (N, C = ends). [ ]: non-standard residue; d: D form. The star is where a group is joined. Orn = NCCC[CH](N)C(=O)O; Cbz = O=C(OCc1ccccc1)*
# Tested on: CEM cells HIV-1 protection, formazan growth assay
# Assay: NCI AIDS Antiviral Assay
# Details: for pIC50: measured here: growth of uninfected CEM cells
# How it was run: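 Five concentrations of each compound were applied to infected and uninfected human CEM cells. Protection from HIV-1 was judged from growth measured with a soluble formazan assay.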
SMILES,pEC50,pIC50,outcome
CCOC(=O)C(CC(C)C)NC(=O)C(Cc1ccc(N(CCCl)CCCl)cc1)NC(C)=O (stereo unspecified),< 4.97,6.88,
CCc1cc2c(c3c1CCC3=O)CC1(Cc3ccc(C)cc3C1)C2 (stereo unspecified),< 3.70,3.87,
CC(=O)Oc1ccc(/C=C/S(=O)(=O)CS(=O)(=O)/C=C/c2ccc(OC(C)=O)c(OC(C)=O)c2)cc1OC(C)=O,< 4.70,4.96,
c1ccc2c3c([nH]c2c1)CCc1cncnc1-3,< 3.70,4.92,
CCCCN(CCCC)CCNc1ccc(Cl)c2oc3cc(C)ccc3c(=O)c12,< 4.66,< 4.66,
COc1ccc(-c2cc(-c3ccccc3)c3c(n2)-c2ccccc2NC(=O)C3)cc1,< 3.70,4.42,
COc1ccc(C(=O)O)c(Cc2ccc3ccccc3c2)c1,,,inactive
Cc1ccc(N=Nc2c(C)n(-c3ccc4scnc4c3)c(=S)n(-c3ccccc3)c2=O)cc1,< 4.12,< 4.12,
CSC(SC)(C(=O)O)c1cc(-c2c(Cl)cccc2Cl)no1,< 4.09,4.15,
CN1CCC(c2ccccc2)(c2ccccc2)C(O)C1 (stereo unspecified),,,inactive
C=C1[C@@H]2CC[C@@]3([C@@H](C2)[C@@]24CCC[C@@]5(C)CN(CCO)[C@@H]2O[C@@H]3C[C@H]54)[C@@H]1O,,,inactive
COC(=O)c1cc(C(c2cc(C)c(O)c(C(=O)OC)c2)c2cc(C)c(O)c(C(=O)OC)c2)cc(C)c1O,,,inactive
C[Si](C)(OCCS(=O)(=O)O)C1S(=O)(=O)OCCOS1(=O)=O,< 3.70,4.22,
CCOC(=O)c1ccc(-n2[nH]nc(C(N)=O)c2=O)cc1,< 3.70,< 3.70,
OCC[P+](c1ccccc1)(c1ccccc1)c1ccccc1,< 3.70,4.91,
CCCCc1c2c(nc3c1CCc1cc(C=O)c(N)nc1-3)/C(=C/c1ccccc1)CCC2,< 5.36,< 5.36,
COC(=O)c1ccccc1C1=C(O)C(=O)C(c2ccccc2C(=O)OC)=C(O)C1=O,< 4.20,5.17,
CN(C(=N)c1ccccc1)c1ccccc1,,,inactive
ClC1OC(Cl)(Cl)C(Cl)(Cl)OC1(Cl)Cl (stereo unspecified),,,inactive
C=CCOC(=O)CC[N+]1=CCC(c2ccccc2)(c2ccccc2)O1,< 4.53,< 4.53,
COC(=O)[C@H](Cc1ccccc1)NC(=O)N(CCC#N)CCCCN(CCC#N)C(=O)N[C@@H](Cc1ccccc1)C(=O)OC,< 3.70,3.94,
Cc1nc2ccccc2c(C(=O)NO)[n+]1[O-],< 3.70,< 3.70,

SMILES,pEC50,pIC50,outcome
CC(C)(C)OC(=O)CN1CCNCCNCC1,< 4.00,< 4.00,
CC1=CC(=O)N2C(OC[C@@H]2c2ccccc2)O1 (stereo partly specified),< 3.25,< 3.25,
C/C(O)=C(\C=NC(=S)c1ccncc1)C(=O)Nc1ccccc1C,< 3.70,< 3.70,
CC1=C(/C=C/C2=CC(=C\C(=O)O)/CC(C3=C(C)CCCC3(C)C)C2)C(C)(C)CCC1 (stereo unspecified),,,inactive
Cc1ccc2c(c1)C(=O)C1(C2)Cc2cccc(C)c2C1=O (stereo unspecified),< 3.70,< 3.70,
CCN(CC)c1cccc2c1C1(O)CCC3(CC21)OCCCCO3 (stereo unspecified),< 3.70,4.01,
O=C(C[C@H](Cl)[C@H](NC(=O)OCc1ccccc1)C(=O)O)NO,,,inactive
C[C@]12CC[C@H](O)CC1CC[C@@H]1C2CC[C@]2(C)NC(=O)CCC12 (stereo partly specified),,,inactive
COc1cc([C@H]2Oc3cc([C@H]4Oc5cc(O)cc(O)c5C(=O)[C@@H]4O)ccc3O[C@@H]2CO)ccc1O,< 3.70,4.18,
O=C1C(=Cc2cccc(O)c2)N=C(c2ccccc2)N1n1c(-c2ccccc2)nc2ccccc2c1=O,< 3.70,5.07,
CCCCCCCCCCCc1c(O)c(O)cc2nc3ccc(Sc4ccccc4)cc3nc12,< 4.82,5.34,
O=c1c(Nc2ccccc2)cn(CCOc2ccc(Cl)cc2)c(=O)n1CCOc1ccc(Cl)cc1,< 3.70,3.84,
CCN(Cc1cccc(S(=O)(=O)O)c1)c1ccc(C(=C2C=CC(=[N+](CC)Cc3cccc(S(=O)(=O)O)c3)C=C2)c2ccc(S(=O)(=O)O)cc2)cc1,< 3.95,4.10,
N#C/C(=C/N1C(=O)CC(=O)NC1=S)C(N)=O,< 3.70,< 3.70,
O=C1C/C(=C\O)C(=O)c2ccccc2N1,6.73,< 3.70,
CNC1C(OC2C(OC3C(O)C(O)C(N=C(N)N)C(O)C3N=C(N)N)OC(C)C2(O)/C=N/NC(N)=S)OC(CO)C(O)C1O (stereo unspecified),,,inactive
CCCC/C=C\CCCCCCCCCC1=C(O)C(=O)C=C(OC)C1=O,< 4.26,5.03,
Cc1cccc(NC(=O)NCCOC(=O)OCCNC(=O)Nc2cccc(C)c2C)c1C,< 3.70,< 3.70,
O=C(CCc1ccc(O)cc1)c1c(O)cc(O)cc1OC1OC(CO)C(O)C(O)C1O (stereo unspecified),< 3.70,< 3.70,
Cc1cc(N(C)c2ccccc2)nc(N(C)c2ccccc2)n1,< 3.70,4.22,
COC(=O)NN=C(c1ccc(Cl)cc1)c1ccc(Cl)cc1,4.45,3.76,
CCOC(=O)CN(c1sc(C)c(C)c1C(=O)OCC)S(=O)(=O)c1ccc(C)cc1,< 3.70,4.93,

SMILES,pEC50,pIC50,outcome
CN1NC2(CCCCC2)ON=C1c1ccccc1,,,inactive
Cn1nc(Cc2ccc(Cl)cc2)n(N)c1=O,< 3.70,< 3.70,
Cc1ccc(/C=C2/N=C(N/N=C\C(O)C(O)C(O)C(O)CO)NC2=O)cc1 (stereo unspecified),< 3.70,3.91 and < 3.70 and 3.88,
C/C(=N\O)c1ccc(OCc2cc(C(F)(F)F)cc(C(F)(F)F)c2)cc1,< 3.70,4.39,
CCOC(C)=Nc1cc(OC)cc2c1NC(=O)CCS2,< 3.70,< 3.70,
Cc1cn([C@H]2C[C@@H]3[C@@H](COC(CCN=[N+]=[N-])N3O)O2)c(=O)[nH]c1=O (stereo partly specified),4.14,< 3.70,
Cc1cc(S(=O)(=O)Nc2n[nH]c(Nc3ccc4ccccc4c3)n2)c(S)cc1Cl,< 3.70,4.31,
CCOC(=O)c1ccc(NC(=O)Nc2ncc(Cl)cc2Cl)cc1,< 3.70,< 3.70,
Cc1ccc2[nH]c(N(C)C)nc2c2nc(Cl)nc1-2,< 3.70,3.93,
CC1=NN(C(=O)CC(=O)Nc2cccc(C)c2)C(=O)C1N=Nc1ccc(C(=O)O)cc1 (stereo unspecified),< 3.70,4.55,
N#Cc1c(N2CCOCC2)[nH]c(=O)n(-c2ccccc2)c1=S,< 3.70,< 3.70,
COCOc1ccc(C(=O)C(C)c2ccc(OCOC)cc2OCOC)c(O)c1 (stereo unspecified),< 3.70,4.59,
O=C(NC1CCCCC1)/C(=C\c1ccc2c(c1)OCO2)NC(=O)c1ccccc1,< 3.70,< 3.70,
COc1ccc(C2OC(=O)c3c2ccc2ccccc32)c(C)c1 (stereo unspecified),< 4.35,4.56,
C=CC(=O)NCCSSCCNC(=O)C=C,< 3.70,3.94,
COc1ccc2c(c1)c(C(=O)O)cc(=O)n2C,< 3.70,< 3.70,
NC1CC(n2ccc(=O)[nH]c2=O)OC1C(O)CO (stereo unspecified),< 4.00,< 4.00,
Oc1ccccc1-c1n[nH]c(=S)n1/N=C/c1ccc(-c2ccc(Br)cc2)o1,< 4.37,< 4.37,
COC(=O)Cc1c([C@@H]2Nc3ccccc3[C@H]2CC(=O)OC)[nH]c2ccccc12,< 3.70,4.52,
COC(=O)[C@H]1COC(=S)N1C(=O)[C@@H](C)[C@H](O)C(C)C,< 3.20,< 3.20,
Nc1c(S(=O)(=O)O)cc(S(=O)(=O)O)c2ccc(N=Nc3ccc(/C=C/c4ccc(N=Nc5ccc6c(S(=O)(=O)O)cc(S(=O)(=O)O)c(N)c6c5O)cc4S(=O)(=O)O)c(S(=O)(=O)O)c3)c(O)c12,4.99,4.29,
CC(C)S(=O)(=O)c1s[nH]c(=O)c1-c1ccccc1,< 3.75,< 3.75,

SMILES,pEC50,pIC50,outcome
S=C(Nc1cccc(-c2ccccc2)c1)Nc1ccc(Br)cn1,< 3.70,5.93,
O=C1CCC2CN3CCc4c([nH]c5ccccc45)C3CC2C1 (stereo unspecified),< 4.34,,
CCN(CC)C1Oc2cc3c(cc2C(c2cccc(OC)c2OC)C1C)OCO3 (stereo unspecified),< 3.70,5.80,
CCOC(=O)c1cc(C2=CCNC2=O)c(-c2cc(C)no2)[nH]1,< 3.70,4.48,
COc1ccc(C2C(C(C)=O)=C(C)NC(C)=C2C(C)=O)cc1,< 3.70,< 3.70,
CC(C)C1CC(CO)(CNc2nc(N)nc(Cl)c2/C=N\O)C1 (stereo unspecified),< 4.70,7.48,
O=C1OC2C3Cc4ccccc4N2C1C3 (stereo unspecified),< 3.19,3.44,
O=c1ccc2ccccc2n1O,< 3.70,< 3.70,
COc1cc2c(c3c1C=CCO3)C(=O)c1ccccc1C2=O,,,inactive
COc1c(Cl)cc(Cl)c(CCCCCCCC(=O)O)c1Cl,< 4.00,< 4.00,
CCOC(=O)c1cc(-c2ccc(OC)c(OC)c2)c[nH]1,< 3.70,4.30,
CCOC(=O)c1c(C)[nH]c(=S)c(C#N)c1-c1ccc(OC)cc1,< 3.70,4.09,
CCCCCCCCCCCCCCCCNC(=O)/C(=C\c1ccc(Cl)c(Cl)c1)NC(=O)c1ccccc1,< 4.00,4.70,
Oc1ccc([I+]c2ccccc2)cc1O,< 3.97,4.52,
NC(=O)C1CC(=O)NCCCC(NC(=O)C(N)Cc2ccc(O)cc2)C(=O)NC(Cc2ccccc2)C(=O)N1 (stereo unspecified) (H-Y[Orn]FD-NH2; lactam 2-4; configuration not given here),< 4.00,< 4.00,
C[CH2][Sn]([CH2]C)([S]CCS(=O)(=O)O)[S]CCS(=O)(=O)O (tested in a mixture with another compound),< 3.70,5.50,
COC(=O)CNC(=O)C(CC(C)C)NC(=O)C(CC(C)C)NC(=O)C(C)NC(=O)OCc1ccccc1 (stereo unspecified) (Cbz-ALLG-OMe; configuration not given here),,,inactive
Cc1cc(C)n(C2=NS(=O)(=O)c3ccccc3N2C)n1,< 3.91,< 3.91,
COC(=O)C1=C2Nc3ccccc3C23CCN2CCC(=O)C[C@H](C1)[C@@H]23 (stereo partly specified),< 3.97,< 3.97,
